Entries after “also recorded” stand apart in the source; their conditions may differ.
Key:
[1] = target: CCR5 (Homo sapiens, UniProt P51681); settings: Jiao 2018; cited from earlier work
[2] = tested on: HIV-1; settings: at concentrations that do not affect CCR5 chemokine receptor activity; Olson 1999, Trkola 2001; cited from earlier work
[3] = Phase Ib/II mTNBC study: adverse events; format: in vivo; settings: Patient D, weekly 350 mg leronlimab + carboplatin every three weeks, up to Cycle 6 Day 1 visit
Source text: (§1) The primary objective of Phase 1b is to determine the safety, tolerability, and maximum tolerated dose (MTD) of PRO 140 in patients with TNBC, when combined with carboplatin to define a recommended Phase II dose of the combination. The primary objective of phase 2b is to evaluate the impact on progression-free survival (PFS) of the combination of PRO 140 and carboplatin in patients with CCR5+ TNBC previously treated with anthracyclines and taxanes in a neoadjuvant and adjuvant setting. For further investigational plan details please refer to section 5.3.5 in SNO01 (IND 141723).
(§2) Each treatment cycle consisted of 21 days. […] This treatment regimen was used for all subjects enrolled in the mTNBC study, unless otherwise indicated.

[4] = tested on: CTC and EMT; experiment: Single patient emergency use IND: CTC and EMT counts; format: in vivo, human; settings: Patient A, 700 mg weekly, approximately ten weeks after initiation
Procedure: Approximately ten weeks following the initiation of treatment, the subject's CTC and EMT counts were measured, and zero CTCs and zero EMTs were identified. Lesion and nodule sizes were measured in the breast and liver of Patient A and metastases were also qualitatively described (FIG. 6). Protein expression levels of CCR5 (FIG. 7A) and PD-L1 (FIG. 7B) on individual CAMLs from Patient A were measured by flow cytometry and reported as Mean Fluorescence Intensity (MFI). CCR5 MFI (“CCR5 INT”) was calculated by subtracting background signal of a negative control sample from the experimental value. CAML size was also measured and reported in […].

[5] = tested on: metastatic HER2+ breast cancer; experiment: Single patient emergency use IND: CT/MRI imaging of metastases; format: in vivo, human; settings: Patient A, 700 mg weekly
Source text: This subject, Patient A, is a person with a diagnosis of metastatic breast cancer, stage IV. The subject previously received Taxotere/Herceptin/Pertuzumab as frontline therapy for metastatic HER2 positive breast cancer. They had partial response for their systemic disease, but then developed diffuse brain metastases (systemic disease stable). They completed whole-brain radiation therapy and continues on Herceptin and Pertuzumab. They have neuropathy and residual side effects from chemotherapy, which limits use of current second-line options due to concern for side effects.
Prior to enrolling in the trial, the patient had 18 identifiable tumor spots in the brain.

[6] = tested on: CCR5+ metastatic Triple Negative Breast Cancer (mTNBC); experiment: Phase Ib/II mTNBC study: tumor imaging scans; format: in vivo, human; settings: Patient D, with carboplatin
Source text: as §1, §2
Scans were taken at the end of every two cycles (every 6 weeks). The subject had Scan 1 after six weeks, Scan 2 after 12 weeks, and Scan 3 after 18 weeks (Table 4).

[7] = tested on: MDA-MB-231 cells expressing Luc2-eGFP (MDA-MB-231.pFLUG); experiment: Breast cancer tumor / lung metastasis model in mice, bioluminescence imaging; format: in vivo, female NCI Athymic NCr-nu/nu mice
Procedure: Each mouse received one million (10^6) MDA-MB-231 cells expressing Luc2-eGFP (called MDA-MB-231.pFLUG) through the tail vein. […] Treatment was started one day before the injection.
In vivo bio-luminescence imaging was performed following intraperitoneal injection with 100 μl of D-luciferin (30 mg/mL) to the control and treated groups. […] FIG. 1D is a plot of the percentage of mice with tumors.

[8] = tested on: circulating tumor cells (CTC), epithelial mesenchymal transition cells (EMTs) and cancer-associated macrophage-like cells (CAMLs); experiment: Phase Ib/II mTNBC study: CTC, EMT and CAML counts in blood (LifeTrac Assay, CellSieve filtration); format: in vivo, human; settings: for Number of CTCs (PD-L1) / Number of Apoptotic CTCs (CCR5) / Number of CAMLs (CCR5) / Number of CAMLs (PD-L1) / Number of CTCs (CCR5) / Number of EMTs (CCR5) / Number of EMTs (PD-L1) / CAML- Total / EMT-Total / Number of Apoptotic CTC (PD-L1) / CTC-Total: Patient D; for Number of CTCs (PD-L1): baseline 0; for Number of Apoptotic CTCs (CCR5) / Number of CAMLs (CCR5) / Number of CAMLs (PD-L1) / Number of CTCs (CCR5) / Number of EMTs (CCR5) / Number of EMTs (PD-L1): baseline 1; for CAML- Total / EMT-Total: baseline 2; for Number of Apoptotic CTC (PD-L1): baseline 3; for CTC-Total: baseline 5
Source text: as §1, §2
The blood sample for circulating tumor cells (CTC) and cancer-associated macrophage-like cells (CAMLs) assessment was collected at baseline and subsequently at Day 1 of each treatment cycle to assess changes in CTCs and CAMLs after treatment and to perform correlative analysis between CCR5 expression and PD-L1 expression.
Creatv Microtech has developed a size-based technology and detection methodology (LifeTrac Assay) that enables the collection and characterization of all cancer-associated cells in the blood i.e., CTCs, epithelial mesenchymal transition cells (EMTs) and CAMLs [Adams Cytometry 2015, Adams RSC 2014]. The CellSieve™ filtration platform is used to capture CAMLs and CTCs.

CCR5, sequence (P51681 whole entry): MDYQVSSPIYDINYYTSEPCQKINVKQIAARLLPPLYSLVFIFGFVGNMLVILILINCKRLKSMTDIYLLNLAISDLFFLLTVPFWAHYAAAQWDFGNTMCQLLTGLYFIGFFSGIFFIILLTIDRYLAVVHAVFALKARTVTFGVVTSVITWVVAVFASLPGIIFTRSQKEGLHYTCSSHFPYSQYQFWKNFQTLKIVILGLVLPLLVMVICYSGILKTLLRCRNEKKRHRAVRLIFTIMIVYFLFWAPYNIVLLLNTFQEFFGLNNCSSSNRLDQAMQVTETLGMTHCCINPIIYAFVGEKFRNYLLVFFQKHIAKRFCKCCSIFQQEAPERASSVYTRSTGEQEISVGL

COC[C@@H](c1ccc(C(F)(F)F)cc1)N1CCN(C2(C)CCN(C(=O)c3c(C)ncnc3C)CC2)C[C@@H]1C [vicriviroc]
Cell killing mediated by DNA-damaging chemotherapeutic agents [1]: dramatically enhanced

leronlimab: humanized monoclonal anti-CCR5 antibody, humanized version of the murine mAb PA14
HIV-1 entry and replication [2]: potently inhibits
Serious adverse events [3]: no serious adverse events had been reported
CTC count [4]: zero
EMT count [4]: zero
New metastatic spots in the liver, lung and brain (CT scan) ([5]; approximately four weeks after initial treatment): no sign of new metastatic spots
Reduction in tumor volume of the largest brain tumor ([5]; approximately two months): 56%
New metastasis in the brain ([5]; approximately two months after initial treatment): no new metastasis was detectable
Identifiable lesions in the brain ([5]; approximately two months, 18 identifiable tumor spots before): three
New lung nodules ([6]; Scan 3): no new lung nodules found
New lymphadenopathy or metastatic disease on diagnostic CT chest, abdomen and pelvis ([6]; Scan 3): No new
Previously identified right hilar lymph node ([6]; Scan 3): resolved
Right lung metastasis maximum standardized uptake values (SUVs) ([6]; Scan 3, previously 15.3): values (SUVs) of 6.8 (previously
Decrease in size of target lesion ([6]; scan 3 vs previous 2.4×1.9): 20%
Tumor volume in a breast cancer tumor model ([7]; mouse, in vivo): significant reduction
Detectable levels of CTC ([8]; Patient C (second subject), with carboplatin, after two weeks of treatment): no detectable levels
Reduction in EMT cells ([8]; Patient C, with carboplatin, after two weeks of treatment): 70%
CAML count ([8]; Patient C, with carboplatin, following at least two weeks of treatment, initial count 45): 30
CCR5 expression on cancer-associated cells ([8]; Patient D (first patient), with carboplatin, approximately 11 weeks of treatment): large reductions
Detectable circulating tumor cells (CTC) or putative metastatic tumor cells in peripheral blood ([8]; Patient D (first subject), with carboplatin, following 16 weeks of treatment): no detectable
Number of CTCs (PD-L1) ([8]; with carboplatin, C1D1): 0
Number of Apoptotic CTCs (CCR5) ([8]; with carboplatin, C1D1): 0
Number of CAMLs (CCR5) ([8]; with carboplatin, C1D1): 0
Number of CAMLs (PD-L1) ([8]; with carboplatin, C1D1): 1
Number of CTCs (CCR5) ([8]; with carboplatin, C1D1): 0
Number of EMTs (CCR5) ([8]; with carboplatin, C1D1): 1
Number of EMTs (PD-L1) ([8]; with carboplatin, C1D1): 1
CAML- Total ([8]; with carboplatin, C1D1): 1
EMT-Total ([8]; with carboplatin, C1D1): 2
Number of Apoptotic CTC (PD-L1) ([8]; with carboplatin, C1D1): 0
CTC-Total ([8]; with carboplatin, C1D1): 0
Number of CTCs (PD-L1) ([8]; with carboplatin, C2D1): 0
Number of Apoptotic CTCs (CCR5) ([8]; with carboplatin, C2D1): 0
Number of CAMLs (CCR5) ([8]; with carboplatin, C2D1): 1
Number of CAMLs (PD-L1) ([8]; with carboplatin, C2D1): 2
Number of CTCs (CCR5) ([8]; with carboplatin, C2D1): 0
Number of EMTs (CCR5) ([8]; with carboplatin, C2D1): 0
Number of EMTs (PD-L1) ([8]; with carboplatin, C2D1): 0
CAML- Total ([8]; with carboplatin, C2D1): 3
EMT-Total ([8]; with carboplatin, C2D1): 0
Number of Apoptotic CTC (PD-L1) ([8]; with carboplatin, C2D1): 0
CTC-Total ([8]; with carboplatin, C2D1): 0
Number of CTCs (PD-L1) ([8]; with carboplatin, C3D1): 0
Number of Apoptotic CTCs (CCR5) ([8]; with carboplatin, C3D1): 0
Number of CAMLs (CCR5) ([8]; with carboplatin, C3D1): 3
Number of CAMLs (PD-L1) ([8]; with carboplatin, C3D1): 1
Number of CTCs (CCR5) ([8]; with carboplatin, C3D1): 0
Number of EMTs (CCR5) ([8]; with carboplatin, C3D1): 0
Number of EMTs (PD-L1) ([8]; with carboplatin, C3D1): 0
Number of Apoptotic CTC (PD-L1) ([8]; with carboplatin, C3D1): 0
Number of CTCs (PD-L1) ([8]; with carboplatin, C4D1): 0
Number of Apoptotic CTCs (CCR5) ([8]; with carboplatin, C4D1): 0
Number of CAMLs (CCR5) ([8]; with carboplatin, C4D1): 0
Number of CAMLs (PD-L1) ([8]; with carboplatin, C4D1): 1
Number of CTCs (CCR5) ([8]; with carboplatin, C4D1): 0
Number of EMTs (CCR5) ([8]; with carboplatin, C4D1): 0
Number of EMTs (PD-L1) ([8]; with carboplatin, C4D1): 0
CAML- Total ([8]; with carboplatin, C4D1): 1
EMT-Total ([8]; with carboplatin, C4D1): 0
Number of Apoptotic CTC (PD-L1) ([8]; with carboplatin, C4D1): 0
CTC-Total ([8]; with carboplatin, C4D1): 0
Number of CTCs (PD-L1) ([8]; with carboplatin, C5D1): 0
Number of Apoptotic CTCs (CCR5) ([8]; with carboplatin, C5D1): 0
Number of CAMLs (CCR5) ([8]; with carboplatin, C5D1): 1
Number of CAMLs (PD-L1) ([8]; with carboplatin, C5D1): 2
Number of CTCs (CCR5) ([8]; with carboplatin, C5D1): 0
Number of EMTs (CCR5) ([8]; with carboplatin, C5D1): 0
Number of EMTs (PD-L1) ([8]; with carboplatin, C5D1): 0
CAML- Total ([8]; with carboplatin, C5D1): 3
EMT-Total ([8]; with carboplatin, C5D1): 0
Number of Apoptotic CTC (PD-L1) ([8]; with carboplatin, C5D1): 0
CTC-Total ([8]; with carboplatin, C5D1): 0
CAML- Total ([8]; with carboplatin, C6D1): 8
EMT-Total ([8]; with carboplatin, C6D1): 0
CTC-Total ([8]; with carboplatin, C6D1): 0
Detectable circulating tumor cells (CTCs) or putative metastatic tumor cells in peripheral blood ([8]; first patient of Phase 1b/2 trial, at 11 weeks of treatment): no detectable
Decrease of total CTC+EMT counts ([8]; third subject, with carboplatin, first two weeks of treatment): 75%

maraviroc
Cell killing mediated by DNA-damaging chemotherapeutic agents [1]: dramatically enhanced
Lung metastasis / homing of breast cancer cells to the lungs in mouse model ([7]; FIG. 1): block homing of breast cancer cells to the lungs; also recorded: inhibition of lung metastasis; also recorded: effectively blocked lung metastases

Source: US20210214448A1, “CCR5 BINDING AGENT FOR THE TREATMENT OF CCR5 POSITIVE METASTATIC CANCER” (CytoDyn Inc., priority 2020, published 2021)
